In brackets after ≈: the same amount, converted by molar mass.
Assays:
Enterococcus sp. = assay: In vitro antibacterial activity of compound against Enterococci bacteria.; assay type: functional
Staphylococcus sp. = assay: In vitro antibacterial activity of compound against Staphylococci bacteria.; assay type: functional

| SMILES | MIC (Enterococcus sp.) [mg/L] | MIC (Staphylococcus sp.) [mg/L] |
| --- | --- | --- |
| C=CCOc1c(Cl)c(C)c(C(=O)O[C@@H]2[C@@H](C)O[C@@H](O[C@H]3[C@H](O)C[C@]4(O[C@@H]5[C@@H](C)O[C@@H](O[C@H]6[C@@H](OC)[C@@H](C)O[C@@H](O[C@H]7[C@H](O)[C@H](OC)[C@H](O[C@@H]8OC[C@@H]9O[C@@]%10(OC[C@@H](OC(=O)c%11c(C)cc(O)cc%11O)[C@@H]%11OCO[C@H]%11%10)O[C@H]9[C@H]8O)O[C@@H]7COC)[C@]6(C)O)[C@@H](O)[C@@]5(C)O4)O[C@@H]3C)C[C@H]2O[C@H]2C[C@](C)([N+](=O)[O-])[C@@H](OC)[C@H](C)O2)c(OC)c1Cl | 4 (≈ 2.37 µM) | 4 (≈ 2.37 µM) |
| COC[C@H]1O[C@@H](O[C@@H]2OC[C@@H]3O[C@@]4(OC[C@@H](OC(=O)c5c(C)cc(O)cc5O)[C@@H]5OCO[C@H]54)O[C@H]3[C@H]2O)[C@@H](OC)[C@@H](O)[C@@H]1O[C@@H]1O[C@H](C)[C@H](OC)[C@H](O[C@@H]2O[C@H](C)[C@H]3O[C@]4(C[C@@H](O)[C@H](O[C@H]5C[C@@H](O[C@H]6C[C@](C)(NC(C)=O)[C@@H](OC)[C@H](C)O6)[C@H](OC(=O)c6c(C)c(Cl)c(O)c(Cl)c6OC)[C@@H](C)O5)[C@@H](C)O4)O[C@]3(C)[C@@H]2O)[C@@]1(C)O | 2 (≈ 1.21 µM) | 1 (≈ 0.603 µM) |
| COC[C@H]1O[C@@H](O[C@@H]2OC[C@@H]3O[C@@]4(OC[C@@H](OC(=O)c5c(C)cc(O)cc5O)[C@@H]5OCO[C@H]54)O[C@H]3[C@H]2OCCN=[N+]=[N-])[C@@H](OC)[C@@H](O)[C@@H]1O[C@@H]1O[C@H](C)[C@H](OC)[C@H](O[C@@H]2O[C@H](C)[C@H]3O[C@]4(C[C@@H](O)[C@H](O[C@H]5C[C@@H](O[C@H]6C[C@](C)([N+](=O)[O-])[C@@H](OC)[C@H](C)O6)[C@H](OC(=O)c6c(C)c(Cl)c(O)c(Cl)c6OC)[C@@H](C)O5)[C@@H](C)O4)O[C@]3(C)[C@@H]2O)[C@@]1(C)O | 2 (≈ 1.17 µM) | 2 (≈ 1.17 µM) |
| C=CCOc1cc(C)c(C(=O)O[C@@H]2CO[C@]3(O[C@H]4[C@@H](OCCO)[C@H](O[C@@H]5O[C@H](COC)[C@@H](O[C@@H]6O[C@H](C)[C@H](OC)[C@H](O[C@@H]7O[C@H](C)[C@H]8O[C@]9(C[C@@H](O)[C@H](O[C@H]%10C[C@@H](O[C@H]%11C[C@](C)([N+](=O)[O-])[C@@H](OC)[C@H](C)O%11)[C@H](OC(=O)c%11c(C)c(Cl)c(OCC=C)c(Cl)c%11OC)[C@@H](C)O%10)[C@@H](C)O9)O[C@]8(C)[C@@H]7O)[C@@]6(C)O)[C@H](O)[C@@H]5OC)OC[C@@H]4O3)[C@@H]3OCO[C@H]32)c(OCC=C)c1 | 8 (≈ 4.42 µM) | 16 (≈ 8.84 µM) |
| COC[C@H]1O[C@@H](O[C@@H]2OC[C@@H]3O[C@@]4(OC[C@@H](OC(=O)c5c(C)cc(O)cc5O)[C@@H]5OCO[C@H]54)O[C@H]3[C@H]2O)[C@@H](OC)[C@@H](O)[C@@H]1O[C@@H]1O[C@H](C)[C@H](OC)[C@H](O[C@@H]2O[C@H](C)[C@H]3O[C@]4(C[C@@H](O)[C@H](O[C@H]5C[C@@H](O[C@H]6C[C@](C)(NC(=O)[C@H](CCSC)NC(=O)OCc7ccccc7)[C@@H](OC)[C@H](C)O6)[C@H](OC(=O)c6c(C)c(Cl)c(O)c(Cl)c6OC)[C@@H](C)O5)[C@@H](C)O4)O[C@]3(C)[C@@H]2O)[C@@]1(C)O | 2 (≈ 1.06 µM) | 2 (≈ 1.06 µM) |
| COC[C@H]1O[C@@H](O[C@@H]2OC[C@@H]3O[C@@]4(OC[C@@H](OC(=O)c5c(C)cc(O)cc5O)[C@@H]5OCO[C@H]54)O[C@H]3[C@H]2O)[C@@H](OC)[C@@H](O)[C@@H]1O[C@@H]1O[C@H](C)[C@H](OC)[C@H](O[C@@H]2O[C@H](C)[C@H]3O[C@]4(C[C@@H](O)[C@H](O[C@H]5C[C@@H](O[C@H]6C[C@](C)(N)[C@@H](OC)[C@H](C)O6)[C@H](OC(=O)c6c(C)c(Cl)c(O)c(Cl)c6OC)[C@@H](C)O5)[C@@H](C)O4)O[C@]3(C)[C@@H]2O)[C@@]1(C)O | 4 (≈ 2.48 µM) | 2 (≈ 1.24 µM) |
| COC[C@H]1O[C@@H](O[C@@H]2OC[C@@H]3O[C@@]4(OC[C@@H](OC(=O)c5c(C)cc(O)cc5O)[C@@H]5OCO[C@H]54)O[C@H]3[C@H]2OCC(=O)OC)[C@@H](OC)[C@@H](OCC(=O)OC)[C@@H]1O[C@@H]1O[C@H](C)[C@H](OC)[C@H](O[C@@H]2O[C@H](C)[C@H]3O[C@]4(C[C@@H](O)[C@H](O[C@H]5C[C@@H](O[C@H]6C[C@](C)([N+](=O)[O-])[C@@H](OC)[C@H](C)O6)[C@H](OC(=O)c6c(C)c(Cl)c(O)c(Cl)c6OC)[C@@H](C)O5)[C@@H](C)O4)O[C@]3(C)[C@@H]2OCC(=O)OC)[C@@]1(C)O | 4 (≈ 2.15 µM) | 32 (≈ 17.2 µM) |
| COC[C@H]1O[C@@H](O[C@@H]2OC[C@@H]3O[C@@]4(OC[C@@H](OC(=O)c5c(C)cc(O)cc5O)[C@@H]5OCO[C@H]54)O[C@H]3[C@H]2OCCO)[C@@H](OC)[C@@H](O)[C@@H]1O[C@@H]1O[C@H](C)[C@H](OC)[C@H](O[C@@H]2O[C@H](C)[C@H]3O[C@]4(C[C@@H](O)[C@H](O[C@H]5C[C@@H](O[C@H]6C[C@](C)([N+](=O)[O-])[C@@H](OC)[C@H](C)O6)[C@H](OC(=O)c6c(C)c(Cl)c(O)c(Cl)c6OC)[C@@H](C)O5)[C@@H](C)O4)O[C@]3(C)[C@@H]2O)[C@@]1(C)O | 0.5 (≈ 0.296 µM) | 1 (≈ 0.592 µM) |
| COC[C@H]1O[C@@H](O[C@@H]2OC[C@@H]3O[C@@]4(OC[C@@H](OC(=O)c5c(C)cc(O)cc5O)[C@@H]5OCO[C@H]54)O[C@H]3[C@H]2OCCNC(C)=O)[C@@H](OC)[C@@H](O)[C@@H]1O[C@@H]1O[C@H](C)[C@H](OC)[C@H](O[C@@H]2O[C@H](C)[C@H]3O[C@]4(C[C@@H](O)[C@H](O[C@H]5C[C@@H](O[C@H]6C[C@](C)([N+](=O)[O-])[C@@H](OC)[C@H](C)O6)[C@H](OC(=O)c6c(C)c(Cl)c(O)c(Cl)c6OC)[C@@H](C)O5)[C@@H](C)O4)O[C@]3(C)[C@@H]2O)[C@@]1(C)O | 4 (≈ 2.31 µM) | 2 (≈ 1.16 µM) |
| COC[C@H]1O[C@@H](O[C@@H]2OC[C@@H]3O[C@@]4(OC[C@@H](OC(=O)c5c(C)cc(O)cc5O)[C@@H]5OCO[C@H]54)O[C@H]3[C@H]2O)[C@@H](OC)[C@@H](O)[C@@H]1O[C@@H]1O[C@H](C)[C@H](OC)[C@H](O[C@@H]2O[C@H](C)[C@H]3O[C@]4(C[C@@H](O)[C@H](O[C@H]5C[C@@H](O[C@H]6C[C@](C)(NC(=O)[C@@H](CCCCNC(=O)OCc7ccccc7)NC(=O)OCc7ccccc7)[C@@H](OC)[C@H](C)O6)[C@H](OC(=O)c6c(C)c(Cl)c(O)c(Cl)c6OC)[C@@H](C)O5)[C@@H](C)O4)O[C@]3(C)[C@@H]2O)[C@@]1(C)O | 8 (≈ 3.98 µM) | 32 (≈ 15.9 µM) |
| COC[C@H]1O[C@@H](O[C@@H]2OC[C@@H]3O[C@@]4(OC[C@@H](OC(=O)c5c(C)cc(O)cc5O)[C@@H]5OCO[C@H]54)O[C@H]3[C@H]2OC)[C@@H](OC)[C@@H](OC)C1O[C@@H]1O[C@H](C)[C@H](OC)C(O[C@@H]2O[C@H](C)[C@H]3O[C@]4(C[C@@H](OC)[C@H](O[C@H]5C[C@@H](O[C@H]6C[C@](C)([N+](=O)[O-])[C@@H](OC)[C@H](C)O6)[C@H](OC(=O)c6c(C)c(Cl)c(O)c(Cl)c6OC)[C@@H](C)O5)[C@@H](C)O4)O[C@]3(C)[C@@H]2OC)[C@@]1(C)OC (stereo partly specified) | 4 (≈ 2.33 µM) | 16 (≈ 9.33 µM) |
| COC[C@H]1O[C@@H](O[C@@H]2OC[C@@H]3O[C@@]4(OC[C@@H](OC(=O)c5c(C)cc(O)cc5O)[C@@H]5OCO[C@H]54)O[C@H]3[C@H]2O)[C@@H](OC)[C@@H](O)[C@@H]1O[C@@H]1O[C@H](C)[C@H](OC)[C@H](O[C@@H]2O[C@H](C)[C@H]3O[C@]4(C[C@@H](O)[C@H](O[C@H]5C[C@@H](O[C@H]6C[C@](C)(NC(=O)[C@H](C)N)[C@@H](OC)[C@H](C)O6)[C@H](OC(=O)c6c(C)c(Cl)c(O)c(Cl)c6OC)[C@@H](C)O5)[C@@H](C)O4)O[C@]3(C)[C@@H]2O)[C@@]1(C)O | 4 (≈ 2.37 µM) | 4 (≈ 2.37 µM) |
| COC[C@H]1O[C@@H](O[C@@H]2OC[C@@H]3O[C@@]4(OC[C@@H](OC(=O)c5c(C)cc(O)cc5O)[C@@H]5OCO[C@H]54)O[C@H]3[C@H]2O)[C@@H](OC)[C@@H](O)[C@@H]1O[C@@H]1O[C@H](C)[C@H](OC)[C@H](O[C@@H]2O[C@H](C)[C@H]3O[C@]4(C[C@@H](O)[C@H](O[C@H]5C[C@@H](O[C@H]6C[C@](C)([N+](=O)[O-])[C@@H](OC)[C@H](C)O6)[C@H](OC(=O)c6c(C)c(Cl)c(O)c(Cl)c6OC)[C@@H](C)O5)[C@@H](C)O4)O[C@]3(C)[C@@H]2O)[C@H]1O [EVERNIMICIN] | 0.25 (≈ 0.153 µM) | 2 (≈ 1.23 µM) |

Source: ChEMBL document CHEMBL1132390, “Chemical modifications and structure activity studies of ziracin and related everninomicin antibiotics” (1999)
